Source: ChEMBL document CHEMBL1145498, “A systematic interaction map of validated kinase inhibitors with Ser/Thr kinases” (Proc Natl Acad Sci U S A, 2007)
Values belong to the compound of their own block, whether it stands above or below them.

Legend:
[1] = target: T1, Myosin light chain kinase, smooth muscle (Homo sapiens, UniProt Q15746); experiment: Inhibition of myosin light chain kinase
[2] = target: Dual specificity mitogen-activated protein kinase kinase 1 (Homo sapiens, UniProt Q02750)
[3] = target: Protein kinase C beta type (Homo sapiens, UniProt P05771); experiment: Inhibition of PKCbeta
[4] = target: Protein kinase C alpha type (Homo sapiens, UniProt P17252); experiment: Inhibition of PKCalpha
[5] = target: Inhibitor of nuclear factor kappa-B kinase subunit beta (Homo sapiens, UniProt O14920); experiment: Inhibition of IKK-beta
[6] = target: Cyclin-dependent kinase 1 (Homo sapiens, UniProt P06493); experiment: Inhibition of Cdk1
[7] = target: Serine-protein kinase ATM (Homo sapiens, UniProt Q13315); experiment: Inhibition of ATM
Chain of Serine-protein kinase ATM (Q13315 whole entry): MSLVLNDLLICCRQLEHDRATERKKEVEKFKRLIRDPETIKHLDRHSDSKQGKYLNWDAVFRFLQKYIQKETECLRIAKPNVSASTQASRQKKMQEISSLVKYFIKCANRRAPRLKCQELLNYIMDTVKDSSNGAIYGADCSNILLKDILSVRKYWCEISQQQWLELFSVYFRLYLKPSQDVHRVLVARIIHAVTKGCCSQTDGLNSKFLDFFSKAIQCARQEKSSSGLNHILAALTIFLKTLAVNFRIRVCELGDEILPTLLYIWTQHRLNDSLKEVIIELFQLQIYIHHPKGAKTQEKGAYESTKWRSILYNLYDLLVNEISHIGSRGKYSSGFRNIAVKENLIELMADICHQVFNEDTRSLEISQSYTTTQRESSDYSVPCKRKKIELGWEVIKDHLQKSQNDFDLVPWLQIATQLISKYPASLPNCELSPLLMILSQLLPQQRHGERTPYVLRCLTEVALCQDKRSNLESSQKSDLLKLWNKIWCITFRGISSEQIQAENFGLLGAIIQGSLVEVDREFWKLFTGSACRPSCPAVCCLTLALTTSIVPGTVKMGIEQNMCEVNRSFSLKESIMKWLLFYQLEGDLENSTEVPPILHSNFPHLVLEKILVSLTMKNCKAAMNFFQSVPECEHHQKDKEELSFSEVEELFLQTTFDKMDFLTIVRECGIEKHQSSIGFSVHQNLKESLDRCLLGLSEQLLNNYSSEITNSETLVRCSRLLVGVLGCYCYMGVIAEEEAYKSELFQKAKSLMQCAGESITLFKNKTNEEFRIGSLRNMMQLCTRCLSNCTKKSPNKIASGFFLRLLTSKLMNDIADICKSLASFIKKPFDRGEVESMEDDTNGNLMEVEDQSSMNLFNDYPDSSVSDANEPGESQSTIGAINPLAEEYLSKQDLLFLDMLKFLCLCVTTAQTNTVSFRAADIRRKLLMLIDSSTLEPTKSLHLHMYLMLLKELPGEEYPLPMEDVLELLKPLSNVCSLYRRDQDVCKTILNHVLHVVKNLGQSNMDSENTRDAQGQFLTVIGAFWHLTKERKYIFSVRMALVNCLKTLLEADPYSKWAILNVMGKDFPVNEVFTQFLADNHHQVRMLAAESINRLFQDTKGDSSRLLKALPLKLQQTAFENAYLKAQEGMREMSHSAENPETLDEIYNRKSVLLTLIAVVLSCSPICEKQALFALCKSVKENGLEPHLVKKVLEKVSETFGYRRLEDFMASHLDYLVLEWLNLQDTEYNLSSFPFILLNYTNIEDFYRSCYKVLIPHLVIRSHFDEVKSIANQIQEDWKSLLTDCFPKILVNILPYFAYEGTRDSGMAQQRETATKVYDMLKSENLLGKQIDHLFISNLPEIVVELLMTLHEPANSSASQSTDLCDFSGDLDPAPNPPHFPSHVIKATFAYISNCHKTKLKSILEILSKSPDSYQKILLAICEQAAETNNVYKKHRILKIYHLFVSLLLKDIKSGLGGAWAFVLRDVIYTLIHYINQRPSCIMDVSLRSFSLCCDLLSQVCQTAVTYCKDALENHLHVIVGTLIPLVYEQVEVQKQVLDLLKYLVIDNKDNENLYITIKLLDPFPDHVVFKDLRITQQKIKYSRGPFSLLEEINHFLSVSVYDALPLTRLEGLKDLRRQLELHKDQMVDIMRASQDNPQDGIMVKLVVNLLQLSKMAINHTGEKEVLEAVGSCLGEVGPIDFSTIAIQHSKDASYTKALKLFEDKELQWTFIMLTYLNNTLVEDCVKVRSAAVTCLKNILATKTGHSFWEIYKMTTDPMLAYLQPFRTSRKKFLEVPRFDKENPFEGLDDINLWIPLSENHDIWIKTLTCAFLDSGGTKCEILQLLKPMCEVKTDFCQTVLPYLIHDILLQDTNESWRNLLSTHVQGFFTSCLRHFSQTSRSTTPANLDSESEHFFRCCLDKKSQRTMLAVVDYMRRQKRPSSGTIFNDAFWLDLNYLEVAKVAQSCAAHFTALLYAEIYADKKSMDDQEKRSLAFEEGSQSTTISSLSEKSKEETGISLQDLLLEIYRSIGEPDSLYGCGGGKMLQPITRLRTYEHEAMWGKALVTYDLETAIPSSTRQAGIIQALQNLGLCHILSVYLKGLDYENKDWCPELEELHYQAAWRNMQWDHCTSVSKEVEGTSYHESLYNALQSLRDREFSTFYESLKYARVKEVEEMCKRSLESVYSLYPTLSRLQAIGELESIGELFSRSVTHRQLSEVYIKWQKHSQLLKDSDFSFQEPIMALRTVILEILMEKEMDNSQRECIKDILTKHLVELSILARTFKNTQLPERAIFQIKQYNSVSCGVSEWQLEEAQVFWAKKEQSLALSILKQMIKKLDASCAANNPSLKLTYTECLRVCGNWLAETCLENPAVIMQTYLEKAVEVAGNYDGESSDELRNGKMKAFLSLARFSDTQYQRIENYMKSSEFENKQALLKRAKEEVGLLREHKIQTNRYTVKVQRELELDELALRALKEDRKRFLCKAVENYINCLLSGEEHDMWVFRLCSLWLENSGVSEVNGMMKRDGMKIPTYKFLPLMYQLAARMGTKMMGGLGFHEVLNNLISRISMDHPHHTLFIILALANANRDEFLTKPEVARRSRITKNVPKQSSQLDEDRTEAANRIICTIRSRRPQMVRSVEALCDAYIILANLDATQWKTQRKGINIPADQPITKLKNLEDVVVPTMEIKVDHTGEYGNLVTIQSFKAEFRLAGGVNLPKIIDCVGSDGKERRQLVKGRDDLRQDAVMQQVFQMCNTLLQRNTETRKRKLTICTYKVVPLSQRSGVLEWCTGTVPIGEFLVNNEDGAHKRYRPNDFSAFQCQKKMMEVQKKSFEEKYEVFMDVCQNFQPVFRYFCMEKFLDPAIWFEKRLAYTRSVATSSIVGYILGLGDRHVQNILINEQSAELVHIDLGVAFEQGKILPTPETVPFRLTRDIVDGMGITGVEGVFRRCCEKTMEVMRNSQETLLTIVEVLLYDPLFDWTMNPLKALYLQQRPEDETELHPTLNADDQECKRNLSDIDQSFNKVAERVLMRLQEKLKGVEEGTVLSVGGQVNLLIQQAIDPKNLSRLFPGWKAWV

[8] = target: Serine/threonine-protein kinase ATR (Homo sapiens, UniProt Q13535); experiment: Inhibition of ATR
[9] = target: T1, Myosin light chain kinase, smooth muscle; experiment: Binding affinity at MLCK
[10] = Inhibition of CaM-K1
[11] = target: Mitogen-activated protein kinase 1 (Homo sapiens, UniProt P28482); experiment: Inhibition of ERK2
Chain of Mitogen-activated protein kinase 1 (P28482 whole entry): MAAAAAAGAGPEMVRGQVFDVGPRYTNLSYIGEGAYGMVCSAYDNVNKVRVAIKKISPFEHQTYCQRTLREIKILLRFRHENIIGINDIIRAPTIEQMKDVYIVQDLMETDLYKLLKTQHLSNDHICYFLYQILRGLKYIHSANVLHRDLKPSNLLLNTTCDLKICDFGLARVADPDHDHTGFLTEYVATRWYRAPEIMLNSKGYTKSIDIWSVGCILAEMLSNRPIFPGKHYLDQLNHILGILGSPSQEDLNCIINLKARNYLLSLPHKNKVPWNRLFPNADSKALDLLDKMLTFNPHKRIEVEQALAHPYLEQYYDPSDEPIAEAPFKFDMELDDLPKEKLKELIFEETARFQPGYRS

[12] = Inhibition of CaM-K2
[13] = target: Calcium/calmodulin-dependent protein kinase type IV (Homo sapiens, UniProt Q16566); experiment: Inhibition of CaM-K4
[14] = Inhibition Cdk1/cyclin E
[15] = target: Proto-oncogene tyrosine-protein kinase Src (Homo sapiens, UniProt P12931); experiment: Inhibition of Src; conditions: read-out: IC50
[16] = target: Mitogen-activated protein kinase 10 (Homo sapiens, UniProt P53779)
Chain of Mitogen-activated protein kinase 10 (P53779 whole entry): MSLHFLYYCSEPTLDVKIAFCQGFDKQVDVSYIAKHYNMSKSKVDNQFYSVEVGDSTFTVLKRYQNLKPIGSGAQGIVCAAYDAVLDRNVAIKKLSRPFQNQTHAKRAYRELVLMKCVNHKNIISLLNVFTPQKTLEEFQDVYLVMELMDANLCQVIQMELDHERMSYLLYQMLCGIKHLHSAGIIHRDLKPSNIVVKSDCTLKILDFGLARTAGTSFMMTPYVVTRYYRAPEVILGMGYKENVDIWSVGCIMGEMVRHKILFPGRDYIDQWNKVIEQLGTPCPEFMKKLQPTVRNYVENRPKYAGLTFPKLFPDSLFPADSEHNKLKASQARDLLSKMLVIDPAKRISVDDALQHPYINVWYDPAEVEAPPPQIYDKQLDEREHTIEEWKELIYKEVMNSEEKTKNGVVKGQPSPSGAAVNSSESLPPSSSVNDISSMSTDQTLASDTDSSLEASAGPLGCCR

[17] = target: T2, Protein kinase C epsilon type (Homo sapiens, UniProt Q02156); experiment: Inhibition of PKCepsilon
T2 sequence (Q02156 whole entry): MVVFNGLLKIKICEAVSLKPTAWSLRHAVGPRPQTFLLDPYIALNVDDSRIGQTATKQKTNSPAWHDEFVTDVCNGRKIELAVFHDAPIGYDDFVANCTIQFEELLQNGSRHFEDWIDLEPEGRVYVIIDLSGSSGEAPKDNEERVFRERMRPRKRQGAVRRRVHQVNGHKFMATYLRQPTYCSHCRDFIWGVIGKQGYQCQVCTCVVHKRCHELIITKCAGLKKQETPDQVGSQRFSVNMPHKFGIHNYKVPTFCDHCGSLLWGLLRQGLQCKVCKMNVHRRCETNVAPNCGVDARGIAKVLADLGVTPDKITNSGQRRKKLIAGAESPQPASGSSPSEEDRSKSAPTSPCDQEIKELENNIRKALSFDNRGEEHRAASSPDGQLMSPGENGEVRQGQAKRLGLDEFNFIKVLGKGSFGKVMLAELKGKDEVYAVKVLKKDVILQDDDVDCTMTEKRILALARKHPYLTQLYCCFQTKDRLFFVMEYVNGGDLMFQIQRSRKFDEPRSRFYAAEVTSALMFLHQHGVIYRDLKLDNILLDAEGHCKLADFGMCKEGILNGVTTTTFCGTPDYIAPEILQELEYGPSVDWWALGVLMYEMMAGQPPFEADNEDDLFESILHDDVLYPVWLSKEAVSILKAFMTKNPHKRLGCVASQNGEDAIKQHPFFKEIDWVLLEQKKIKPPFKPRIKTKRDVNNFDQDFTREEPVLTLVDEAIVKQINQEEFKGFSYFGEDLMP

[18] = target: Vascular endothelial growth factor receptor 2 (Homo sapiens, UniProt P35968); experiment: Inhibition of KDR
[19] = Inhibition of serum-stimulated Akt kinase phosphorylation in human A375 cells; type: cell-based; conditions: A-375
[20] = Inhibition of mouse CaM kinase 2
A-375 = experiment: Antiproliferative activity against human A375 cells; type: functional, cell-based
[21] = Inhibition of Cdk5/p35
[22] = Inhibition of Cdk4/cyclin D
[23] = target: Protein kinase C delta type (Homo sapiens, UniProt Q05655); experiment: Inhibition of PKCdelta
[24] = Inhibition of SGK
[25] = target: Tyrosine-protein kinase Fyn (Homo sapiens, UniProt P06241); experiment: Inhibition of Fyn
[26] = target: RAC-alpha serine/threonine-protein kinase (Homo sapiens, UniProt P31749); experiment: Inhibition of AKT
Ephrin type-B receptor 3 = Ephrin type-B receptor 3 (Homo sapiens, UniProt P54753); experiment: Inhibition of EphB3
[27] = Inhibition of Cdk1/cyclin A
[28] = target: Tyrosine-protein kinase Lck (Homo sapiens, UniProt P06239)
[29] = target: Epidermal growth factor receptor (Homo sapiens, UniProt P00533)
[30] = target: T3, Glycogen synthase kinase-3 beta (Homo sapiens, UniProt P49841); experiment: Binding affinity to GSK3-beta
T3 sequence (P49841 whole entry): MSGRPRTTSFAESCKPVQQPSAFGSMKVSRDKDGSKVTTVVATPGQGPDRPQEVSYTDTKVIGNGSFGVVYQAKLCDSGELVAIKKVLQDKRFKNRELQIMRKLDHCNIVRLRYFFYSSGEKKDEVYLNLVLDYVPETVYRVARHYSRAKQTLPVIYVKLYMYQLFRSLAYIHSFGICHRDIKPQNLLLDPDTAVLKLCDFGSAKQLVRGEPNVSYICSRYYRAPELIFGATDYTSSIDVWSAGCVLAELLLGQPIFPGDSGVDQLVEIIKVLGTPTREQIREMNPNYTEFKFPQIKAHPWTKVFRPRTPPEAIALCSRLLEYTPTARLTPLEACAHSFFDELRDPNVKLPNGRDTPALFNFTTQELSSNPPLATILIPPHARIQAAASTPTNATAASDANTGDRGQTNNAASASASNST

[31] = target: T3, Glycogen synthase kinase-3 beta; experiment: Inhibition of GSK3-beta; conditions: read-out: IC50

SMILES: O=S(=O)(c1cccc2cnccc12)N1CCCNCC1 [FASUDIL]
IC50 [1]: 3600 nM

SMILES: O=C1C=CC(=O)c2ccccc21 [NAPHTHOQUINONE]
IC50 [2]: 380 nM

SMILES: NC(=O)Nc1sc(-c2ccccc2)cc1C(N)=O
IC50 [5]: 13 nM

SMILES: NC(N)=S [THIOUREA]
IC50 [7]: 200 nM
IC50 [8]: 200 nM

SMILES: O=C1Nc2ccccc2/C1=C1/Nc2ccccc2/C1=N\OCC(O)CO (configuration not stated)
IC50 [14]: 210 nM
IC50 [15]: 430 nM

SMILES: Oc1c2ccccc2c2c3c(cccc13)N=N2 [SP-600125]
IC50 [16]: 90 nM

SMILES: COCc1cc(O)c(O)c(O)c1-c1c(COC)cc(O)c(O)c1O
IC50 [17]: 175 nM

SMILES: Oc1cccc(-c2nc(N3CCOCC3)c3sccc3n2)c1
IC50 [4]: ≥ 3400 nM
IC50 [18]: ≥ 3400 nM
IC50 [19]: < 3000 nM
IC50 [20]: 370 nM
IC50 (A-375): 580 nM

SMILES: CCN(CC)CCCCNc1ncc2cc(-c3cc(OC)cc(OC)c3)c(NC(=O)NC(C)(C)C)nc2n1 [PD-173074]
IC50 [7]: 17600 nM

SMILES: COc1c(C=O)c(O)cc2c1C(=O)c1ccccc1C2=O [DAMNACANTHAL]
IC50 [28]: 620 nM

SMILES: CCn1cnc2c(N)nc(N(c3cccc(Cl)c3)[C@@H]3CCCC[C@@H]3N)nc21 (relative stereo)
IC50 [29]: > 10000 nM
IC50 [4]: 6100 nM

Continued, values first:

IC50 [3]: 2 nM
IC50 [4]: 2 nM
SMILES: Cn1c2ccccc2c2c3c(c4c5ccccc5n(CCC#N)c4c21)CNC3=O [GO-6976]

IC50 [6]: 5 nM
SMILES: O=Nc1c(-c2c(O)[nH]c3ccc(I)cc23)[nH]c2ccccc12

IC50 [9]: 26700 nM
IC50 [10]: > 10 µg/mL
IC50 [11]: > 26700 nM
IC50 [12]: 10 µg/mL
IC50 [13]: > 26700 nM
SMILES: CC(=O)O.O=C(O)c1ccc2c3c1cccc3c(=O)n1c3ccccc3nc21

IC50 [21]: 75 nM
SMILES: CC(C)[C@H](CO)Nc1nc(Nc2cccc(Cl)c2)c2ncn(C(C)C)c2n1 [PURVALANOLA]

Ki [22]: > 2000 nM
Ki [23]: 318 nM
Ki [24]: 497 nM
Ki [25]: > 2000 nM
Ki [26]: > 2000 nM
Ki (Ephrin type-B receptor 3): > 2000 nM
Ki [4]: > 2000 nM
Ki [27]: 110 nM
SMILES: O=C1N=C(NCc2cccs2)S/C1=C/c1ccc2ncccc2c1

Kd [30]: 126 nM
IC50 [31]: 30 nM
SMILES: CC(C)n1cnc2c(Nc3cccc(Cl)c3)nc(NCCO)nc21
